From ChEMBL document CHEMBL1909046, “DrugMatrix in vitro pharmacology data”

Legend:
Acetylcholinesterase = Acetylcholinesterase (Homo sapiens, UniProt P22303); assay: DRUGMATRIX: Acetylcholinesterase enzyme inhibition (substrate: acetylthiocholine); format: cell-based, HEK293; details: hek293; Not Active = under 50% inhibition at 10 µM
[1] = molecular target: T1, Alpha-2A adrenergic receptor (Homo sapiens, UniProt P08913); format: cell membranes, Sf9, Membrane; note: in other assays of this panel Not Active means under 50% inhibition at 10 µM
T1 sequence (P08913 whole entry): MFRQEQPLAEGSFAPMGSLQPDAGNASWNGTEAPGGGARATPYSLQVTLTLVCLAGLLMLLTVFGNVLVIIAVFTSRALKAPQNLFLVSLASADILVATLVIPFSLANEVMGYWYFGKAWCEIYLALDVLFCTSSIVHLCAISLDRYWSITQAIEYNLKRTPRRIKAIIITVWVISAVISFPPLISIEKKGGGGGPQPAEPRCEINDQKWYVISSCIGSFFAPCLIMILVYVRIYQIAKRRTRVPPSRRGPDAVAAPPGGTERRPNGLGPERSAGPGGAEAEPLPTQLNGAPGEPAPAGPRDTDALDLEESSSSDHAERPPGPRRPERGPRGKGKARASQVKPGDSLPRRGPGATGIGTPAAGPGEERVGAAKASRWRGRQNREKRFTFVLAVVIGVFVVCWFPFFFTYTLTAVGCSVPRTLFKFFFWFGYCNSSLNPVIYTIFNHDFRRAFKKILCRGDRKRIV

[2] = molecular target: Mitogen-activated protein kinase 14 (Homo sapiens, UniProt Q16539); parameters: species or system Escherichia coli;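 note: inhibition of p38alpha enzyme activity in a biochemical kinase assay, with myelin basic protein serving as substrate; in other assays of this panel Not Active means under 50% inhibition at 10 µM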
Chain of Mitogen-activated protein kinase 14 (Q16539 whole entry): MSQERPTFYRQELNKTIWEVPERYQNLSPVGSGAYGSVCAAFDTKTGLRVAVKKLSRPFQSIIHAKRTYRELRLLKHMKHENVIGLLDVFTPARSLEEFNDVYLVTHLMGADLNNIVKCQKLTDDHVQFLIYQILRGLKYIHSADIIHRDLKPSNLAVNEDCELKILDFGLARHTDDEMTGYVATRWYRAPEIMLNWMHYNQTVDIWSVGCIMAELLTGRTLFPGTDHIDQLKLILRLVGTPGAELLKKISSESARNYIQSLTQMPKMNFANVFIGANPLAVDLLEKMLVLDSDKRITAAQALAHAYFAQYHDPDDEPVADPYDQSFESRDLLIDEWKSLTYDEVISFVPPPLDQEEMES

D(3) dopamine receptor = D(3) dopamine receptor (Homo sapiens, UniProt P35462); assay: DRUGMATRIX: Dopamine D3 radioligand binding (ligand: [3H] Spiperone); format: cell membranes, CHO, Membrane
Chain of D(3) dopamine receptor (P35462 whole entry): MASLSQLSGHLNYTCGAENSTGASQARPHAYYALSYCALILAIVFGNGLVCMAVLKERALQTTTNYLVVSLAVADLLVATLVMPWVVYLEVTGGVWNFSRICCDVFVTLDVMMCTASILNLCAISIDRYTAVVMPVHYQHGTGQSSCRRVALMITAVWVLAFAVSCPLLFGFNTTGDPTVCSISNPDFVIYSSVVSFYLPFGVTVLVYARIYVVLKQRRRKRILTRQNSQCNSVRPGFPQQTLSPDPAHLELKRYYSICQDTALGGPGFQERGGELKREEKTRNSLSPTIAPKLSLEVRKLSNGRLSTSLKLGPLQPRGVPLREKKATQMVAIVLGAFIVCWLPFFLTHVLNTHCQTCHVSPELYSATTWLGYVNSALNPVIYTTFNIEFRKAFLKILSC

[3] = molecular target: Matrix metalloproteinase-9 (Homo sapiens, UniProt P14780); assay: biochemical; format: cell-based;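 note: inhibition of isolated MMP-9 enzyme activity toward a synthetic peptide substrate, from the DrugMatrix protease screening panel; in other assays of this panel Not Active means under 50% inhibition at 10 µM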
Chain of Matrix metalloproteinase-9 (P14780 whole entry): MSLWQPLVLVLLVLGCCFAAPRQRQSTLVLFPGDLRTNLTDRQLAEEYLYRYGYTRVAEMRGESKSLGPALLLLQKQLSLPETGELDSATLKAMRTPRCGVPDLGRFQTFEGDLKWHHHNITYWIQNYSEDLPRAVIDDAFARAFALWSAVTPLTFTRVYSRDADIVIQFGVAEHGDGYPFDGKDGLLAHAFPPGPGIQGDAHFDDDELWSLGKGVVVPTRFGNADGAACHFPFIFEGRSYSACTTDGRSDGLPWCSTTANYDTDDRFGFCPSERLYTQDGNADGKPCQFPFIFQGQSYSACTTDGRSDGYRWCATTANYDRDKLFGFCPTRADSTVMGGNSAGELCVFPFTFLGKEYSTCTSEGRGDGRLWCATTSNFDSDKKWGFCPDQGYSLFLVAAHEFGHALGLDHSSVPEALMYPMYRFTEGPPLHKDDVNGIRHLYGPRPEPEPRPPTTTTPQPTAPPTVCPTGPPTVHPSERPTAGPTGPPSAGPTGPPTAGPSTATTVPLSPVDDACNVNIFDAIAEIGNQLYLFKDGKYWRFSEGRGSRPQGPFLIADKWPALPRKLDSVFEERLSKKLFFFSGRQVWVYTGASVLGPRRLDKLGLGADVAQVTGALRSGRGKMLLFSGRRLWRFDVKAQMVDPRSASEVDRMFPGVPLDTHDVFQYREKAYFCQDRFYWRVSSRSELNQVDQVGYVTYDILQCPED

Chain of Acetylcholinesterase (P22303 whole entry): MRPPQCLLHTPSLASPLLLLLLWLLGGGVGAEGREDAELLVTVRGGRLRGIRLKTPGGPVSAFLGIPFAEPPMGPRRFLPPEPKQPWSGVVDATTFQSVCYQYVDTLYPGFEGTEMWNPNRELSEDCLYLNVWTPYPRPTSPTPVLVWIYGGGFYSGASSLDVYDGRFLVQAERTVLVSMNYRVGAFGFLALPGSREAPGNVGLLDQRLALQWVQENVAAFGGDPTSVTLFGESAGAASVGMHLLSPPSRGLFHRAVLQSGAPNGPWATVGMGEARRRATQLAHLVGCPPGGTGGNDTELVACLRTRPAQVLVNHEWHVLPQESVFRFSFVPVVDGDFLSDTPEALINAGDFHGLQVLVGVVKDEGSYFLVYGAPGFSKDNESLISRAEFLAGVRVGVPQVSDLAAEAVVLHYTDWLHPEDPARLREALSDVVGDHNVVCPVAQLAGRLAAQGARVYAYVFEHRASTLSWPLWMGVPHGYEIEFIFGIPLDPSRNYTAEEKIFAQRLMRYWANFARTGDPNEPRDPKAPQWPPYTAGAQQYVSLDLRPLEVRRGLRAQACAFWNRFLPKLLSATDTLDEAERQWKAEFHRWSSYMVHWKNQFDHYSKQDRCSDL

Compound | IC50 (Acetylcholinesterase) | IC50 [2] | IC50 [3] | IC50 ([1]; sf9) | IC50 (D(3) dopamine receptor; cho) | further results
C[C@@H](CO)NC(=O)[C@@H]1C=C2c3cccc4[nH]cc(c34)C[C@H]2N(C)C1 [ERGONOVINE] | Not Active | Not Active | Not Active |  |  | IC50 ([1]; read-out: IC50): 1680 nM; Ki ([1]; read-out: Ki): 630 nM; IC50 (D(3) dopamine receptor; read-out: IC50): 567 nM; Ki (D(3) dopamine receptor; read-out: Ki): 193 nM
COC(=O)CCc1ccc(OCC(O)CNC(C)C)cc1 (configuration not stated) [ESMOLOL] | Not Active | Not Active | Not Active | Not Active | Not Active | 
CCC1(C)CC(=O)NC1=O (configuration not stated) [ETHOSUXIMIDE] | Not Active | Not Active | Not Active | Not Active | Not Active | 
C#C[C@]1(OC(C)=O)CC[C@H]2[C@@H]3CCC4=C[C@@H](OC(C)=O)CC[C@@H]4[C@H]3CC[C@@]21C [ETHYNODIOL DIACETATE] | Not Active | Not Active | Not Active | Not Active | Not Active | 
COc1cc([C@@H]2c3cc4c(cc3[C@@H](O[C@@H]3O[C@@H]5CO[C@@H](C)O[C@H]5[C@H](O)[C@H]3O)[C@H]3COC(=O)[C@H]23)OCO4)cc(OC)c1O [ETOPOSIDE] | Not Active | Not Active | Not Active | Not Active | Not Active | 
C=CCc1ccc(O)c(OC)c1 [EUGENOL] | Not Active | Not Active | Not Active | Not Active | Not Active | 
CC(C(=O)O)c1cccc(Oc2ccccc2)c1 (configuration not stated) [FENOPROFEN] | Not Active | Not Active | Not Active | Not Active | Not Active | 
CC(C)(C)NC(=O)[C@H]1CC[C@H]2[C@@H]3CC[C@H]4NC(=O)C=C[C@]4(C)[C@H]3CC[C@]12C [FINASTERIDE] | Not Active | Not Active | Not Active | Not Active | Not Active | 
Nc1ccn([C@@H]2O[C@H](CO)[C@@H](O)C2(F)F)c(=O)n1 [GEMCITABINE] | Not Active | Not Active | Not Active | Not Active | Not Active | 
CC(C)=CCC/C(C)=C/CO [GERANIOL] | Not Active | Not Active | Not Active | Not Active | Not Active | 
NNc1nncc2ccccc12 [HYDRALAZINE] | Not Active | Not Active | Not Active | Not Active | Not Active | 
CC(=O)[C@@]1(O)CC[C@H]2[C@@H]3CCC4=CC(=O)CC[C@]4(C)[C@H]3CC[C@@]21C [HYDROXYPROGESTERONE] | Not Active | Not Active | Not Active | Not Active | Not Active | 
COC1=C(OC)C(=O)C(CCCCCCCCCCO)=C(C)C1=O [IDEBENONE] | Not Active | Not Active | Not Active | Not Active | Not Active | 
CC(C)NNC(=O)c1ccncc1 [IPRONIAZID] | Not Active | Not Active | Not Active | Not Active | Not Active | 
Cc1c(OCC(F)(F)F)ccnc1C[S+]([O-])c1nc2ccccc2[nH]1 (configuration not stated) [LANSOPRAZOLE] | Not Active | Not Active | Not Active | Not Active | Not Active | 
O=c1cc(N2CCOCC2)oc2c(-c3ccccc3)cccc12 [LY-294002] | Not Active | Not Active | Not Active | Not Active | Not Active | 
COc1ccc2[nH]cc(CCNC(C)=O)c2c1 [MELATONIN] | Not Active | Not Active | Not Active | Not Active | Not Active | 
NC(=O)C[S+]([O-])C(c1ccccc1)c1ccccc1 (configuration not stated) [MODAFINIL] | Not Active | Not Active | Not Active | Not Active | Not Active | 
CCN(CC)CCOCCC1=CCC2CC1C2(C)C (configuration not stated) [MYRTECAINE] | Not Active | Not Active | Not Active | Not Active | Not Active | 
O=C(O)c1cccnc1Nc1cccc(C(F)(F)F)c1 [NIFLUMIC ACID] | Not Active | Not Active | Not Active | Not Active | Not Active | 

Compound | IC50 (Acetylcholinesterase) | IC50 [2] | IC50 [3] | IC50 ([1]; sf9) | IC50 (D(3) dopamine receptor; cho) | further results
O=C(N/N=C/c1ccc([N+](=O)[O-])o1)c1cc([N+](=O)[O-])cc([N+](=O)[O-])c1O [NIFURSOL] | Not Active | Not Active | Not Active | Not Active | Not Active | 
COC(=O)Nc1nc2ccc(C(=O)c3cccs3)cc2[nH]1 [NOCODAZOLE] | Not Active | Not Active | Not Active | Not Active | Not Active | 
C#CC1(O)CC[C@H]2[C@@H]3CCC4=CC(=O)CC[C@@H]4[C@H]3CC[C@@]21CC (some centres not stated) [NORGESTREL] | Not Active | Not Active | Not Active | Not Active | Not Active | 
COC(=O)Nc1nc2ccc([S+]([O-])c3ccccc3)cc2[nH]1 (configuration not stated) [OXFENDAZOLE] | Not Active | Not Active | Not Active | Not Active | Not Active | 
CC(=O)O[C@H]1C(=O)[C@@]2(C)[C@H]([C@H](OC(=O)c3ccccc3)[C@]3(O)C[C@H](OC(=O)[C@H](O)[C@@H](NC(=O)c4ccccc4)c4ccccc4)C(C)=C1C3(C)C)[C@]1(OC(C)=O)CO[C@@H]1C[C@@H]2O [PACLITAXEL] | Not Active | Not Active | Not Active | Not Active | Not Active | 
C[n+]1ccc(-c2cc[n+](C)cc2)cc1.[Cl-].[Cl-] [PARAQUAT DICHLORIDE] | Not Active | Not Active | Not Active | Not Active | Not Active | 
CC(C)NCC(O)COc1cccc2[nH]ccc12 (configuration not stated) [PINDOLOL] | Not Active | Not Active | Not Active | Not Active | Not Active | 
CCn1cc(C(=O)O)c(=O)c2cnc(N3CCCC3)nc21 [PIROMIDIC ACID] | Not Active | Not Active | Not Active | Not Active | Not Active | 
C[n+]1ccccc1/C=N/O.[Cl-] [PRALIDOXIME CHLORIDE] | Not Active | Not Active | Not Active | Not Active | Not Active | 
C[C@]12C=CC(=O)C=C1CC[C@@H]1[C@@H]2[C@@H](O)C[C@@]2(C)[C@H]1CC[C@]2(O)C(=O)CO [PREDNISOLONE] | Not Active | Not Active | Not Active | Not Active | Not Active | 
CC(=O)[C@H]1[C@H](C#N)C[C@H]2[C@@H]3CC=C4C[C@@H](O)CC[C@]4(C)[C@H]3CC[C@@]21C [PREGNENOLONE CARBONITRILE] | Not Active | Not Active | Not Active | Not Active | Not Active | 
CCCN(CCC)S(=O)(=O)c1ccc(C(=O)O)cc1 [PROBENECID] | Not Active | Not Active | Not Active | Not Active | Not Active | 
CCCNCC(O)COc1ccccc1C(=O)CCc1ccccc1 (configuration not stated) [PROPAFENONE] | Not Active | Not Active | Not Active | Not Active | Not Active | 
CCCOc1ccc(C(=O)OCCN(CC)CC)cc1N [PROPARACAINE] | Not Active | Not Active | Not Active | Not Active | Not Active | 
CC(C)c1cccc(C(C)C)c1O [PROPOFOL] | Not Active | Not Active | Not Active | Not Active | Not Active | 
C[C@@H]1O[C@@H](O[C@@H]2C=C3CC[C@@H]4[C@H](CC[C@]5(C)[C@@H](c6ccc(=O)oc6)CC[C@]45O)[C@@]3(C)CC2)[C@H](O)[C@H](O)[C@H]1O [PROSCILLARIDIN] | Not Active | Not Active | Not Active | Not Active | Not Active | 
Oc1cccc(O)c1O [PYROGALLOL] | Not Active | Not Active | Not Active | Not Active | Not Active | 
AURANOFIN | Not Active | Not Active | Not Active |  |  | Ki (Acetylcholinesterase): Not Active; IC50 ([1]; sf9, read-out: IC50): 884 nM; Ki ([1]; sf9, read-out: Ki): 331 nM; Ki [2]: Not Active; IC50 (D(3) dopamine receptor; cho, read-out: IC50): 659 nM; Ki (D(3) dopamine receptor; cho, read-out: Ki): 224 nM; Ki [3]: Not Active
GADOPENTETATE DIMEGLUMINE | Not Active | Not Active | Not Active | Not Active | Not Active | Ki (Acetylcholinesterase): Not Active; Ki ([1]; sf9): Not Active; Ki [2]: Not Active; Ki (D(3) dopamine receptor; cho): Not Active; Ki [3]: Not Active
GENTAMICIN | Not Active | Not Active | Not Active | Not Active | Not Active | Ki (Acetylcholinesterase): Not Active; Ki ([1]; sf9): Not Active; Ki [2]: Not Active; Ki (D(3) dopamine receptor; cho): Not Active; Ki [3]: Not Active
